Data as given in ChEMBL document CHEMBL1154818, “Molecular modeling study of binding site selectivity of TQMP to G-quadruplex DNA” (Eur J Med Chem, 2010).

How the values were obtained:
Nucleic Acid [1] = assay: Binding affinity to DNA duplex; assay type: nucleic-acid assay
Nucleic Acid [2] = assay: Binding affinity to d(TTAGGG) sequence of G-quadruplex DNA; assay type: nucleic-acid assay

Compound | K (Nucleic Acid [1]) | K (Nucleic Acid [2])
C[N+](C)(C)Cc1cc(-c2c3nc(c(-c4ccc(O)c(C[N+](C)(C)C)c4)c4ccc([nH]4)c(-c4ccc(O)c(C[N+](C)(C)C)c4)c4nc(c(-c5ccc(O)c(C[N+](C)(C)C)c5)c5ccc2[nH]5)C=C4)C=C3)ccc1O | 3.18 ×10⁴ /mol | 1.12 ×10⁶ /mol
C[n+]1ccc(-c2c3nc(c(-c4cc[n+](C)cc4)c4ccc([nH]4)c(-c4cc[n+](C)cc4)c4ccc([nH]4)c(-c4cc[n+](C)cc4)c4nc2C=C4)C=C3)cc1 | 2.73 ×10⁶ /mol | 1.38 ×10⁷ /mol
